Experiments:
PI3K-β (786-O) = test: p-AKT HTRF assay, PI3K-β in 786-O cells; assay type: cell-based; details: Homo sapiens, 786-0
Description: (§1) Cells were incubated at 37° C. in a 5% CO2 atmosphere overnight. […] Medium was then aspirated and 50 μL/well of lysis buffer was added. Plates were shaked for 45 minutes at room temperature and then 16 ul/well of lysate was transferred to 384-well plate. 4 ul/well of premixed antibody was added to the wells. The plate was centrifuged at 1000 rpm at RT for 1 minute and then incubated for 4 hours at 22° C., and Phospho-AKT (ser473) Kit was used for detection.

PI3K (p120γ) (h) = PI3K (p120γ) (h) (Homo sapiens (Human), UniProt P48736); test: PI3K (p120γ) (h) non-radioactive HTRF kinase assay; assay type: biochemical
Chain of PI3K (p120γ) (h) (P48736 whole entry, the tested form may be a part): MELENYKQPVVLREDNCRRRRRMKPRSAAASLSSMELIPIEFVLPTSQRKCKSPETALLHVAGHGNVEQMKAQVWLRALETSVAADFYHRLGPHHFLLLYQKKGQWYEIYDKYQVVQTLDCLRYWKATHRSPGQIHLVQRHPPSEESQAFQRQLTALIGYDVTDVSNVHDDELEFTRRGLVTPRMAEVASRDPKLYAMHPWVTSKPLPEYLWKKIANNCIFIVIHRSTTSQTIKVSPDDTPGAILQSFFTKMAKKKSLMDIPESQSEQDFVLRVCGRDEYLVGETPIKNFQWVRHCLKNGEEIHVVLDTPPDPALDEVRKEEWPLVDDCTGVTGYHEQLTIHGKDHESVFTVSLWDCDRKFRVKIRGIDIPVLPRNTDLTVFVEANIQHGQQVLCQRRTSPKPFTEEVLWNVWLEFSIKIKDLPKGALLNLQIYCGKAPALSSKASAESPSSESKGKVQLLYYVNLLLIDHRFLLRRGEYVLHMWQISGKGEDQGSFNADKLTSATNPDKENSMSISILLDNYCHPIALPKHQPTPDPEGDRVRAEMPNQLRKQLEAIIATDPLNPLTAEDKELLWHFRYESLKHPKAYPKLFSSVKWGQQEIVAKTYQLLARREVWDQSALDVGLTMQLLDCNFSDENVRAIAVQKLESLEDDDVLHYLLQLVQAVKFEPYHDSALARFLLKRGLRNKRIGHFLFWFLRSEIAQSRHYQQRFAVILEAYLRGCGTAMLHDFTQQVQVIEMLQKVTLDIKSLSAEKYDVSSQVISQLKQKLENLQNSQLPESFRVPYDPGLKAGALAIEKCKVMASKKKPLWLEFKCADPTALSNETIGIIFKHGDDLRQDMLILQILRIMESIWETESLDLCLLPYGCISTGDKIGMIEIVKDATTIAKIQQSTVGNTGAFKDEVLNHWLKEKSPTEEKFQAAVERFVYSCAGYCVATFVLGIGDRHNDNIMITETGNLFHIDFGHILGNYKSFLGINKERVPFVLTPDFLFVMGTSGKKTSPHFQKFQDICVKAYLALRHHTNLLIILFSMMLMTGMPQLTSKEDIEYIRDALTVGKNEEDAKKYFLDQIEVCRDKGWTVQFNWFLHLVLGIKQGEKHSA
Description: (§2) PI3K (p120γ) (h) is incubated in assay buffer containing 10 μM phosphatidylinositol-4, 5-bisphosphate and MgATP (concentration as required). The reaction is initiated by the addition of the MgATP mix. After incubation for 30 minutes at room temperature, the reaction is stopped by the addition of stop solution containing EDTA and biotinylated phosphatidylinositol-3,4,5-trisphosphate. Finally, detection buffer is added, which contains europium-labelled anti-GST monoclonal antibody, GST-tagged GRP1 PH domain and streptavidin-allophycocyanin. The plate is then read in timeresolved fluorescence mode and the homogenous time-resolved fluorescence (HTRF) signal is determined according to the formula HTRF=10000×(Em665 nm/Em620 nm).
(§3) The kinase assays described herein were performed at Millipore UK Ltd, Dundee Technology Park, Dundee DD2 1SW, UK.

PI3K-γ (RAW264.7) = test: p-AKT HTRF assay, PI3K-γ in RAW 264.7 cells stimulated with C5a; assay type: cell-based, murine; details: Mus musculus; RAW264.7 cells, C5a stimulation
Description: as §1

CCRF-SB = test: Cell proliferation assay (CTG), CCRF-SB; assay type: cell-based; details: Homo sapiens, 72 h
Description: (§4) • 1. Harvest cells during the logarithmic growth period and count cell number using Count-star. • 2. Adjust cell concentrations to […] with respective culture medium. • 3. Add 90 μL cell suspensions to 96-well plates with the final cell density of 1×10^4 cells/well. (cell concentration will be adjusted according to the data base or density optimization assay.) • 4. The next day, prepare 10× solution (Top working concentration: 10 μM of test article in media with 3.16-fold serial dilutions to achieve 9 dose levels). • 5. Dispense 10 μL drug solution of both test article and reference control in each well (duplicate for each drug concentration) of the plate.

hERG channels [1] = molecular target: T1, hERG channels (Homo sapiens (Human), UniProt Q12809); test: hERG assay, automated QPatch procedure; assay type: cell-based
T1 sequence (Q12809 whole entry): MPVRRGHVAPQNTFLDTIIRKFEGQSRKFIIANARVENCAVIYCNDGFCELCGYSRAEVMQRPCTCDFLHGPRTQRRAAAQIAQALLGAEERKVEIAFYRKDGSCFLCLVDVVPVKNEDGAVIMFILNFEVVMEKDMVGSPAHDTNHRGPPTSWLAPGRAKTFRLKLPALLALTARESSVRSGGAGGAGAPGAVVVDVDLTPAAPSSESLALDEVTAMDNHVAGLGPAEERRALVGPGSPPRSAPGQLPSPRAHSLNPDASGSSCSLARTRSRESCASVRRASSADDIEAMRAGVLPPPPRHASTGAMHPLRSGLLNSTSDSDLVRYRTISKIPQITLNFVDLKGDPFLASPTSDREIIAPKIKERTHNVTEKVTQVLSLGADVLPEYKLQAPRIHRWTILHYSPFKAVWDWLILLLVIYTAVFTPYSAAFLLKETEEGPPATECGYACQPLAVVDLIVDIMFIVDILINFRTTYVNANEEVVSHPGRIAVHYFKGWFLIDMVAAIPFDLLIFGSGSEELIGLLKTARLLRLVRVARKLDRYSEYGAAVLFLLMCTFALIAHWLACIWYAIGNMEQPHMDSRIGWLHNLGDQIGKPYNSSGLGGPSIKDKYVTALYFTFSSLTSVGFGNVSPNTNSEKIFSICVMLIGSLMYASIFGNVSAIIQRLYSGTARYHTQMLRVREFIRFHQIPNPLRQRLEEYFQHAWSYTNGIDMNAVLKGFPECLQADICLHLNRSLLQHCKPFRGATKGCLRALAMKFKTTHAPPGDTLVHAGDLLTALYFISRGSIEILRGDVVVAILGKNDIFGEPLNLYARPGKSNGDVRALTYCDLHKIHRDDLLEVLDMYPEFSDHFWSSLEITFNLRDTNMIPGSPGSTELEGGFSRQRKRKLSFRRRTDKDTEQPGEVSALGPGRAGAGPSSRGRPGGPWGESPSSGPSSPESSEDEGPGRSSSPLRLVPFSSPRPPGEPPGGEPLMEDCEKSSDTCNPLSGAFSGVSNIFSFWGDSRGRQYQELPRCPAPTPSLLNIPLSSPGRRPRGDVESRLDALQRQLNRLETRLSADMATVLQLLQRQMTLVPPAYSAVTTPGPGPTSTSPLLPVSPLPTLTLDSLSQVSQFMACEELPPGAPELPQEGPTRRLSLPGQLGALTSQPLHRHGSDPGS
Source text: Only stable cells with recording parameters above threshold were allowed to enter the drug application procedure.

hERG channels [2] = molecular target: T1, hERG channels; test: hERG assay, manual patch-clamp in HEK-293 cells; assay type: cell-based
Source text: Voltage clamp protocol: Computer software was used to set voltage clamp protocols. In whole-cell model, cells were held at −80 mV, first depolarized to −50 mV for 80 ms, and then depolarized to +20 mV for 4800 ms to activate the hERG channels. After that the cells were repolarized to −50 mV for 5000 ms to elicit the characteristic tail currents. Finally the cells were held at −80 mV again. The peak values of tail currents were sampled for analysis.
Manual patch-clamp protocol: The manual patch-clamp system was used to record the hERG currents in human embryonic kidney (HEK-293) cells. The cells were harvested and transferred to the recording charmer on the stage of an inverted microscope and perfused consistently with extracellular solution. The volume of the recording chamber was about 1 mL. The extracellular solution in the chamber was completely exchanged within 1 min at a perfusion rate about 1 mL/min. Patch micropipettes were pulled with micropipette puller. Pipettes were moved to the cells by Micromanipulator and a slight positive pressure was used to clear the surface before seal formation. A high-resistance seal between the surface of the plasma membrane and the tip of pipettes were achieved by a gentle suck. […]
Data was presented as mean±S.E.M. The effects of test article were normalized with the peak currents recorded in vehicle control. […]

[3] = Pharmacokinetic profiles in rats; assay type: in vivo, rat
Description: The compounds disclosed herein are assessed in pharmacokinetic studies in mice, rats, dogs or monkeys. The compounds are administered as a water solution, 2% HPMC+1% TWEEN®80 in water solution, 5% DMSO+5% solutol in saline, 4% MC suspension or capsule. For the intravenous administration, the animals are generally given at 1 or 2 mg/kg dose. For the oral (p.o.) dosing, mice and rats are generally given 5 or 10 mg/kg dose, and dogs and monkeys are generally given 10 mg/kg dose. The blood samples (0.3 mL) are drawn at 0.25, 0.5, 1.0, 2.0, 3.0, 4.0, 6.0, 8.0, 12 and 24 h time points or 0.083, 0.25, 0.5, 1.0, 2.0, 4.0, 6.0, 8.0 and 24 h time points and centrifuged at 3,000 or 4000 rpm for 2 to 10 min. The plasma solutions are collected, stored at −20° C. or −70° C. until analyzed by LC/MS/MS as described above.

PI3K (p110β/p85α) (h) = PI3K (p110β/p85α) (h) (Homo sapiens (Human), UniProt P42338); test: PI3K (p110β/p85α) (h) non-radioactive HTRF kinase assay; assay type: biochemical
Chain of PI3K (p110β/p85α) (h) (P42338 whole entry): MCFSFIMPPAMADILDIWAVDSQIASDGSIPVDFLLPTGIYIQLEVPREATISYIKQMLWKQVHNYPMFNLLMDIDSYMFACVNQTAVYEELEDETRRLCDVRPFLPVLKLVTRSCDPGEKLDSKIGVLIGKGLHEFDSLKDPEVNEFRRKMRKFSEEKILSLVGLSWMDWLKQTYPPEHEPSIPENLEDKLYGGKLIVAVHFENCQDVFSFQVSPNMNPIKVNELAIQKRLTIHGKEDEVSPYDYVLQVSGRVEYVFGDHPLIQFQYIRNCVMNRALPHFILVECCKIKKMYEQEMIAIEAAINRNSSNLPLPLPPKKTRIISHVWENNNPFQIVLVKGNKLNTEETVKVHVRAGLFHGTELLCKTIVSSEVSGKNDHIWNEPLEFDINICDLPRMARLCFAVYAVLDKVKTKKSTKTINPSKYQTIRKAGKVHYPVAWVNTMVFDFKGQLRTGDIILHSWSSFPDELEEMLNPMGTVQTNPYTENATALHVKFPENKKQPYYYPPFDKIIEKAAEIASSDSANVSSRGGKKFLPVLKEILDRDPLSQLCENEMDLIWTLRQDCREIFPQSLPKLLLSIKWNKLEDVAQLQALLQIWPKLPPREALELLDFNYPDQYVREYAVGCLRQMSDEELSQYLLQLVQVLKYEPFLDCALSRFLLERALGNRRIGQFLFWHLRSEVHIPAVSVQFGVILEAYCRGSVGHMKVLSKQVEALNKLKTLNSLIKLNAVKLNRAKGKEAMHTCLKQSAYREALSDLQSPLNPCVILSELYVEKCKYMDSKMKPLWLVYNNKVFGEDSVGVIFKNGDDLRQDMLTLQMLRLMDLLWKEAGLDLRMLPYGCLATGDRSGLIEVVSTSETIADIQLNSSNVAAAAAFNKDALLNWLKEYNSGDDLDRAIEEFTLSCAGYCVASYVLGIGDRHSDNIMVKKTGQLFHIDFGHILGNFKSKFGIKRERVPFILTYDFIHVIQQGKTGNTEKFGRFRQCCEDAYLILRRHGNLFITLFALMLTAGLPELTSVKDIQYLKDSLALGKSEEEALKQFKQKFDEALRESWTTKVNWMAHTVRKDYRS
Chain of PI3K (p110β/p85α) (h) (P27986 whole entry partner): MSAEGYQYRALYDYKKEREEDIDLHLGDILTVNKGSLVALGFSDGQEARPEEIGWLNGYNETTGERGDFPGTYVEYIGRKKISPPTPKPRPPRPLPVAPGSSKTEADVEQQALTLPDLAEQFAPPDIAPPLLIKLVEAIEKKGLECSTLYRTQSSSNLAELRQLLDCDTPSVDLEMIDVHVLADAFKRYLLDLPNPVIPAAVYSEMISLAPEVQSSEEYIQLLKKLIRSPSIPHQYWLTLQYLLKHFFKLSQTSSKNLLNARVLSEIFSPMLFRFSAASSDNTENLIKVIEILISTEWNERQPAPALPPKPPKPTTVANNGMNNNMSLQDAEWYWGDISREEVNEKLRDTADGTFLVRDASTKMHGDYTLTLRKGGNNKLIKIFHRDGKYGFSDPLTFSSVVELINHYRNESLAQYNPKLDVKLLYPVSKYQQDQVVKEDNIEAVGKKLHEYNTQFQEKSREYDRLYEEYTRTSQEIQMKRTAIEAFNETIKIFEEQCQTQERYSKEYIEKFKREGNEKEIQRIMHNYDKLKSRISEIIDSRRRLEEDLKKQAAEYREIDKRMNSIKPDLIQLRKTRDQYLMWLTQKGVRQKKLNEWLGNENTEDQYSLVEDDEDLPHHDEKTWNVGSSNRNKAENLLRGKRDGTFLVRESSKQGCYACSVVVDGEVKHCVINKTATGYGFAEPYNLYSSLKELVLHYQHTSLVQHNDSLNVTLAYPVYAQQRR
Description: as §2, with “(p110β/p85α)” for “(p120γ)”, “phosphatidylinositol-4,5-bisphosphate” for “phosphatidylinositol-4, 5-bisphosphate”
as §3

WSU-NHL = test: Cell proliferation assay (CTG), WSU-NHL; assay type: cell-based; details: Homo sapiens, 72 h
Description: as §4

PI3K-δ (RAJI) = test: p-AKT HTRF assay, PI3K-δ in RAJI cells stimulated with anti-IgM; assay type: cell-based; details: anti-human IgM stimulation
Description: as §1

Cc1noc(-c2c(N)ncnc2N[C@@H](C)c2nc3cccc(C#CCO)c3c(=O)n2-c2ccccc2)n1 [Example 34, (S)-2-(1-((6-amino-5-(3-methyl-1,2,4-oxadiazol-5-yl)pyrimidin-4-yl)amino)ethyl)-5-(3-hydroxyprop-1-yn-1-yl)-3-phenylquinazolin-4(3H)-one]
IC50 (PI3K-β (786-O)): 70.3 nM | IC50 (PI3K (p120γ) (h)): 192 nM | IC50 (PI3K-γ (RAW264.7)): 128 nM | IC50 (CCRF-SB): 318 nM | IC50 (hERG channels [1]): > 30000 nM | IC50 (hERG channels [2]): 15300 nM | clearance ([3]; iv dosing 1 mg/kg): 25 mL/min/kg | AUC(0-t) ([3]; rat, plasma, iv dosing 1 mg/kg): 671 ng·h/mL | half-life ([3]; rat, plasma, iv dosing 1 mg/kg): 54.6 min | Vd ([3]; rat, plasma, iv dosing 1 mg/kg, read-out: Vss): 1.68 L/kg | bioavailability ([3]; rat, plasma, oral bioavailability): 56.8% | IC50 (PI3K (p110β/p85α) (h)): 160 nM | IC50 (WSU-NHL): 49 nM | IC50 (PI3K-δ (RAJI)): 0.65 nM

Reference: US10751339B2, “Substituted aminopyrimidine compounds and methods of use” (SUNSHINE LAKE PHARMA CO., LTD., priority 2018, dated 2020)
